Data on 23 molecules can be found in patent US12617797B2, “Substituted pyrazolo [1,5-a]pyrimidines having multimodal activity against pain” (ESTEVE PHARMACEUTICALS, S.A., priority 2020, dated 2026).

Each structure is given as a SMILES string. Some results are limits rather than exact numbers.

One assay has as its target T1, Human σ1 receptor (Homo sapiens, UniProt Q99720).
T1 construct: expressed in transfected cells; host or cells: HEK-293
Nature of the assay: Human σ1 receptor radioligand assay ([3H](+)-pentazocine binding, transfected HEK-293 membranes). To be noted: binding to σ1 receptor expressed as Ki; + also covers inhibition between 1% and 50%; read-out: σ-1 binding. In a few lines: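 Ki was derived from five test concentrations, or % inhibition was measured at a single 1 or 10 μM dose, against 5 nM [3H](+)-pentazocine. Incubation was 120 min at 37° C in 50 mM Tris-HCl pH 8 with 7 μg HEK-293 membranes, and 10 μM haloperidol set non-specific binding. Bound radioactivity was counted after filtration.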

Assay [1] has as its target Human α2δ-1 subunit of Cav2.2 calcium channel (Homo sapiens, UniProt P54289). Nature of the assay: Human α2δ-1 subunit of Cav2.2 calcium channel assay ([3H]-gabapentin binding). To be noted: binding to the α2δ-1 subunit of voltage-gated calcium channels expressed as Ki; + also covers inhibition between 1% and 50%. In a few lines:
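Displacement of 15 nM [3H]-gabapentin from human α2δ-1-enriched membranes (Hepes-KOH 10 mM, pH 7.4; 27 °C, 60 min) read by filter binding and radioactivity counting. Values are single-point % inhibition (1 or 10 μM) or five-point Ki; 10 μM pregabalin sets NSB.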

Sequence of Human α2δ-1 subunit of Cav2.2 calcium channel (P54289 25-1103): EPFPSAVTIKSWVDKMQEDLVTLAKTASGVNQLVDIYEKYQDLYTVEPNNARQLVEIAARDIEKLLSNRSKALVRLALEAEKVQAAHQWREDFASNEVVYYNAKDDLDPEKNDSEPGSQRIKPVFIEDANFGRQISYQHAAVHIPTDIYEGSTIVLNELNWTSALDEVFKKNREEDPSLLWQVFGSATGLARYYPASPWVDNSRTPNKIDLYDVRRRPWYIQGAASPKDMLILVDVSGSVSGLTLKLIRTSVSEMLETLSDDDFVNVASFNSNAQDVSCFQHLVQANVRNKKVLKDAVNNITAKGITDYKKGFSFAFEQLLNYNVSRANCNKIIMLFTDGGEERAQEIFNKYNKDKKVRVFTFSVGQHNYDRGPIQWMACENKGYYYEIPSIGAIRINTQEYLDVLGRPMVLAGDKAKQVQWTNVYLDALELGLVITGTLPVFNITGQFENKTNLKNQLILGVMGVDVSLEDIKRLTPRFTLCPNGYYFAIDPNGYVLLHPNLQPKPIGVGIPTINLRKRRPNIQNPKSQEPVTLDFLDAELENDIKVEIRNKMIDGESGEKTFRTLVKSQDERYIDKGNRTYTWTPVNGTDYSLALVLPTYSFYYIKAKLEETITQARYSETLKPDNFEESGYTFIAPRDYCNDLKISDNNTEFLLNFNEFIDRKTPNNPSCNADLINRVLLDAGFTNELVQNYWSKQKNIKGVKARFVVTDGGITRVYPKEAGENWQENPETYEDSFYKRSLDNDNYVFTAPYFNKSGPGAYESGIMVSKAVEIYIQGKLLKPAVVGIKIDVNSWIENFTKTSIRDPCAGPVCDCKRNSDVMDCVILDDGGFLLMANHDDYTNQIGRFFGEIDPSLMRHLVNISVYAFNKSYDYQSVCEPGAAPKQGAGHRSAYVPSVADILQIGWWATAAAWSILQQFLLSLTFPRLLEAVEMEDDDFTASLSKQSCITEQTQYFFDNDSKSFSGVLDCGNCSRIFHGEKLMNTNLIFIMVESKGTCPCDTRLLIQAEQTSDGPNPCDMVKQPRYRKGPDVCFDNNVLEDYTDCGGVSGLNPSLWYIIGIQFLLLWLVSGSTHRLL
T1 sequence (Q99720 whole entry): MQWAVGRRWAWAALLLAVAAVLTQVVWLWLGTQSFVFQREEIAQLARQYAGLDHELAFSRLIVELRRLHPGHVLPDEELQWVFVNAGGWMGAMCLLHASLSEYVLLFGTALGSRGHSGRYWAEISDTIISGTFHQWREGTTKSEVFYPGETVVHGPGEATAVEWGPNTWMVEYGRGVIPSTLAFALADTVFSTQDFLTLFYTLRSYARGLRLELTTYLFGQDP

For the molecule `Cc1nn2c([C@H]3CCCN(Cc4ccc(F)cc4)C3)ccnc2c1CNCC1CCOCC1` [Example 206, (S)-1-(7-(1-(4-Fluorobenzyl)piperidin-3-yl)-2-methylpyrazolo[1,5-a]pyrimidin-3-yl)-N-((tetrahydro-2H-pyran-4-yl)methyl)methanamine], the Ki (on Human σ1 receptor; in assay [1]) was below 0.5 µM each time.

For `Cc1nn2c(C3CCCN(Cc4ccc(Cl)cc4)C3)ccnc2c1CN1CCSCC1` (stereo not shown) [Example 167, 4-((7-(1-(4-Chlorobenzyl)piperidin-3-yl)-2-methylpyrazolo[1,5-a]pyrimidin-3-yl)methyl)thiomorpholine], the Ki is below 0.5 µM on Human σ1 receptor and 0.5 to 5 µM in assay [1].

With `Cc1nn2c(C3CCCN(Cc4ccc(Cl)cc4)C3)ccnc2c1CNCCc1ccccc1` (stereo not shown) [Example 153, N-((7-(1-(4-Chlorobenzyl)piperidin-3-yl)-2-methylpyrazolo[1,5-a]pyrimidin-3-yl)methyl)-2-phenylethan-1-amine], the Ki is below 0.5 µM at Human σ1 receptor and 0.5 to 5 µM in assay [1].

`Cc1nn2c(C3CCCN(Cc4ccc(Cl)cc4)C3)ccnc2c1CNCCO` (stereo not shown) [Example 158, 2-(((7-(1-(4-Chlorobenzyl)piperidin-3-yl)-2-methylpyrazolo[1,5-a]pyrimidin-3-yl)methyl)amino)ethan-1-ol]: the Ki was below 0.5 µM at Human σ1 receptor and 0.5 to 5 µM in assay [1].

Consider `COc1ccccc1-c1cc2nccc(C3CCCN(Cc4ccccc4)C3)n2n1` (stereo not shown) [Example 29, 7-(1-Benzylpiperidin-3-yl)-2-(2-methoxyphenyl)pyrazolo[1,5-a]pyrimidine], for which the Ki at Human σ1 receptor was above 1 µM; in assay [1], 0.5 to 5 µM.

As for `Cc1nn2c(C3CCCN(Cc4ccc(Cl)cc4)C3)ccnc2c1CNCc1ccc(CO)cc1` (stereo not shown) [Example 147, (4-((((7-(1-(4-Chlorobenzyl)piperidin-3-yl)-2-methylpyrazolo[1,5-a]pyrimidin-3-yl)methyl)amino)methyl)phenyl)methanol], the Ki on Human σ1 receptor is below 0.5 µM; in assay [1] it was above 5 µM.

Take `Cc1nn2c(C3CCCN(Cc4ccc(Cl)cc4)C3)ccnc2c1CN1CCNC(=O)C1` (stereo not shown) [Example 173]: the results for the Ki (at Human σ1 receptor; in assay [1]) were above 1 µM and above 5 µM, respectively.

Turning to `Cc1nn2c(C3CCCN(Cc4ccc(C#N)cc4)C3)ccnc2c1CNCC1CCOCC1` (stereo not shown) [Example 183, 4-((3-(2-Methyl-3-((((tetrahydro-2H-pyran-4-yl)methyl)amino)methyl)pyrazolo[1,5-a]pyrimidin-7-yl)piperidin-1-yl)methyl)benzonitrile], the Ki on Human σ1 receptor is below 0.5 µM; in assay [1] it was above 5 µM.

Take `CCOc1ccc(-c2cnn3c(C4CCCN(Cc5ccccc5)C4)ccnc23)cc1` (stereo not shown) [Example 39, 7-(1-Benzylpiperidin-3-yl)-3-(4-ethoxyphenyl)pyrazolo[1,5-a]pyrimidine]: the Ki on Human σ1 receptor was above 1 µM; in assay [1] it was above 5 µM.

Consider `Cc1nn2c(C3CCCN(Cc4ccccn4)C3)ccnc2c1-c1ccncc1` (stereo not shown) [Example 72, 2-Methyl-7-(1-(pyridin-2-ylmethyl)piperidin-3-yl)-3-(pyridin-4-yl)pyrazolo[1,5-a]pyrimidine], for which the Ki on Human σ1 receptor was above 1 µM; in assay [1] it was 0.5 to 5 µM.

For the molecule `COc1cc(-c2cnn3c(C4CCCN(Cc5ccccc5)C4)ccnc23)ccn1` (stereo not shown) [Example 38, 7-(1-Benzylpiperidin-3-yl)-3-(2-methoxypyridin-4-yl)pyrazolo[1,5-a]pyrimidine], the Ki on Human σ1 receptor was above 1 µM; in assay [1], 0.5 to 5 µM.

Turning to `Cc1nn2c(C3CCCN(Cc4ccccc4)C3)ccnc2c1COc1ccccc1` (stereo not shown) [Example 102, 7-(1-Benzylpiperidin-3-yl)-2-methyl-3-(phenoxymethyl)pyrazolo[1,5-a]pyrimidine], the Ki was above 1 µM on Human σ1 receptor and above 5 µM in assay [1].

Regarding `Cc1nn2c(C3CCCN(Cc4ccccc4)C3)ccnc2c1-c1ccccc1` (stereo not shown) [Example 44, 7-(1-Benzylpiperidin-3-yl)-2-methyl-3-phenylpyrazolo[1,5-a]pyrimidine], the values for the Ki (at Human σ1 receptor; in assay [1]) were above 1 µM and above 5 µM, respectively.

For the molecule `Cc1nn2c([C@@H]3CCCN(Cc4ccccc4)C3)ccnc2c1CNCC1CCOCC1` [Example 205, (R)-1-(7-(1-benzylpiperidin-3-yl)-2-methylpyrazolo[1,5-a]pyrimidin-3-yl)-N-((tetrahydro-2H-pyran-4-yl)methyl)methanamine], the Ki was below 0.5 µM on Human σ1 receptor and above 5 µM in assay [1].

Regarding `Cc1nn2c(C3CCCN(Cc4ccc(Cl)cc4)C3)ccnc2c1-c1ccnc(CO)c1` (stereo not shown) [Example 134, (4-(7-(1-(4-Chlorobenzyl)piperidin-3-yl)-2-methylpyrazolo[1,5-a]pyrimidin-3-yl)pyridin-2-yl)methanol], the results for the Ki (on Human σ1 receptor; in assay [1]) were 0.5 to 1 µM and above 5 µM, respectively.

For the molecule `Cc1nn2c(C3CCCN(Cc4ccc(Cl)cc4)C3)ccnc2c1CNCC1CCN(S(C)(=O)=O)CC1` (stereo not shown) [Example 179, 1-(7-(1-(4-Chlorobenzyl)piperidin-3-yl)-2-methylpyrazolo[1,5-a]pyrimidin-3-yl)-N-((1-(methylsulfonyl)piperidin-4-yl)methyl)methanamine], the Ki fell in the range of 0.5 to 1 µM at Human σ1 receptor and 0.5 to 5 µM in assay [1].

For the molecule `Oc1ncccc1-c1cc2nccc(C3CCCN(Cc4ccc(Cl)cc4)C3)n2n1` (stereo not shown) [Example 115, 3-(7-(1-(4-chlorobenzyl)piperidin-3-yl)pyrazolo[1,5-a]pyrimidin-2-yl)pyridin-2-ol], the Ki at Human σ1 receptor is above 1 µM; in assay [1], above 5 µM.

`c1ccc(CN2CCCC(c3ccnc4cc(-c5cccs5)nn34)C2)cc1` (stereo not shown) [Example 19, 7-(1-Benzylpiperidin-3-yl)-2-(thiophen-2-yl)pyrazolo[1,5-a]pyrimidine]: the values for the Ki (at Human σ1 receptor; in assay [1]) were above 1 µM and 0.5 to 5 µM, respectively.

In the case of `Clc1ccc(CN2CCCC(c3ccnc4cc(Br)nn34)C2)cc1` (stereo not shown) [Example 110, 2-Bromo-7-(1-(4-chlorobenzyl)piperidin-3-yl)pyrazolo[1,5-a]pyrimidine], the results for the Ki (at Human σ1 receptor; in assay [1]) were 0.5 to 1 µM and above 5 µM, respectively.

Take `Cc1nn2c(C3CCCN(Cc4ccccc4)C3)ccnc2c1COCc1ccccc1` (stereo not shown) [Example 101, 3-((Benzyloxy)methyl)-7-(1-benzylpiperidin-3-yl)-2-methylpyrazolo[1,5-a]pyrimidine]: the Ki was below 0.5 µM on Human σ1 receptor and above 5 µM in assay [1].

As to `Cc1nn2c(CC3CCCN(Cc4ccc(Cl)cc4)C3)ccnc2c1CN(C)C` (stereo not shown) [Example 251, 1-(7-((1-(4-Chlorobenzyl)piperidin-3-yl)methyl)-2-methylpyrazolo[1,5-a]pyrimidin-3-yl)-N,N-dimethylmethanamine], the Ki at Human σ1 receptor was below 0.5 µM; in assay [1], above 5 µM.

Take `Cc1ccccc1CN1CCCC(c2ccnc3c(-c4ccncc4)c(C)nn23)C1` (stereo not shown) [Example 75, 2-Methyl-7-(1-(2-methylbenzyl)piperidin-3-yl)-3-(pyridin-4-yl)pyrazolo[1,5-a]pyrimidine]: the figures for the Ki (at Human σ1 receptor; in assay [1]) were above 1 µM and 0.5 to 5 µM, respectively.

Turning to `Cc1nn2c([C@H]3CCCN(Cc4cc(F)cc(F)c4)C3)ccnc2c1CNCC1CCOCC1` [Example 241, (S)-1-(7-(1-(3,5-Difluorobenzyl)piperidin-3-yl)-2-methylpyrazolo[1,5-a]pyrimidin-3-yl)-N-((tetrahydro-2H-pyran-4-yl)methyl)methanamine], the Ki at Human σ1 receptor was below 0.5 µM; in assay [1], above 5 µM.
